Patent publication US20230085307A1, “PYRIDAZINONE COMPOUND AND HERBICIDE” (NISSAN CHEMICAL CORPORATION, priority 2019, published 2023)

Key:
barnyard grass [1] = test: Test Example 4: herbicidal effect by soil treatment (Table 19, symbol H); assay type: in vivo, barnyard grass (Echinochloa crus-galli); details: amount of applied herbicide 320 g/ha
Procedure, shortened: (§1)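 Pre-emergence style soil spray: seeds under ~1.5 cm sterilized diluvial soil received a uniform coat of emulsion diluted to the predetermined herbicide amount. Greenhouse 25–30° C; readout at week three on previously defined criteria.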

velvetleaf [2] = test: Test Example 4: herbicidal effect by soil treatment (Table 19, symbol M); assay type: in vivo, velvetleaf (Abutilon theophrasti); details: amount of applied herbicide 320 g/ha
Procedure, shortened: as §1

green foxtail [3] = test: Test Example 5: herbicidal effect by foliage application, plastic box (Table 20, symbol G); assay type: in vivo, green foxtail (Setaria viridis); details: foliage application, 320 g/ha, evaluated three weeks after application
Procedure, shortened: (§2)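 Plants were sown into sterilized diluvial soil under about 1.5 cm cover and kept in a greenhouse at 25° C. to 30° C. Fourteen days on, foliage received an even spray of the diluted emulsion. Herbicidal or crop effect was judged three weeks afterwards.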

persian speedwell [4] = test: Test Example 5: herbicidal effect by foliage application, plastic box (Table 20, symbol R); assay type: in vivo, Persian speedwell (Veronica persica); details: foliage application, 320 g/ha, evaluated three weeks after application
Procedure, shortened: as §2

Japanese bulrush [5] = test: Test Example 2: herbicidal activity, application during weed generation under submerged conditions (Table 17, symbol B); assay type: in vivo, Japanese bulrush (Schoenoplectus juncoides); details: AAH 320 g/ha; application during weed generation, submerged conditions
Procedure, shortened: (§3)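 Wagner pot, alluvial soil, 4 cm flood; mixed sowing of all species; greenhouse 25° C.–30° C. Emulsifiable formulation, water-diluted to predetermined dose, applied to paddy water at 1–2 leaf stage. Effect rated at 3 wk using the earlier test's scoring criteria.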

barnyard grass [6] = test: Test Example 3: herbicidal effect by foliage application, Wagner pot (Table 18, symbol H); assay type: in vivo, barnyard grass (Echinochloa crus-galli); details: amount of applied herbicide 320 g/ha
Procedure, shortened: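 Plants were sown in alluvial soil held under 0.1–0.5 cm standing water and grown 14 days in a greenhouse at 25–30 °C. An emulsifiable formulation, water-diluted to the set dose, was then sprayed onto the foliage, and effects were scored three weeks later using previously defined criteria.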

blackgrass [7] = test: Test Example 5: herbicidal effect by foliage application, plastic box (Table 20, symbol J); assay type: in vivo, blackgrass (Alopecurus myosuroides); details: foliage application, 320 g/ha, evaluated three weeks after application
Procedure, shortened: as §2

oval-leafed pondweed [8] = test: Test Example 2: herbicidal activity, application during weed generation under submerged conditions (Table 17, symbol C); assay type: in vivo, oval-leafed pondweed (Monochoria vaginalis); details: AAH 320 g/ha; application during weed generation, submerged conditions
Procedure, shortened: as §3

blackgrass [9] = test: Test Example 4: herbicidal effect by soil treatment (Table 19, symbol J); assay type: in vivo, blackgrass (Alopecurus myosuroides); details: amount of applied herbicide 320 g/ha
Procedure, shortened: as §1

velvetleaf [10] = test: Test Example 5: herbicidal effect by foliage application, plastic box (Table 20, symbol M); assay type: in vivo, velvetleaf (Abutilon theophrasti); details: foliage application, 320 g/ha, evaluated three weeks after application
Procedure, shortened: as §2

southern crabgrass = test: Test Example 5: herbicidal effect by foliage application, plastic box (Table 20, symbol F); assay type: in vivo, southern crabgrass (Digitaria ciliaris); details: foliage application, 320 g/ha, evaluated three weeks after application
Procedure, shortened: as §2

oval-leafed pondweed [11] = test: Test Example 1: herbicidal activity, application before weed generation under submerged conditions (Table 16, symbol C); assay type: in vivo, oval-leafed pondweed (Monochoria vaginalis); details: 320 g/ha applied herbicide
Procedure, shortened: (§4)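 Alluvial soil was flooded to 4 cm depth, weed seeds were sown mixed and 2.5-leaf rice seedlings were transplanted. On sowing day, the compound's emulsion, diluted in water to a set dose, was applied to the water surface. Plants grew at 25–30 °C and were scored 0–5 after three weeks.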

Japanese bulrush [12] = test: Test Example 1: herbicidal activity, application before weed generation under submerged conditions (Table 16, symbol B); assay type: in vivo, Japanese bulrush (Schoenoplectus juncoides); details: 320 g/ha applied herbicide
Procedure, shortened: as §4

green foxtail [13] = test: Test Example 4: herbicidal effect by soil treatment (Table 19, symbol G); assay type: in vivo, green foxtail (Setaria viridis); details: amount of applied herbicide 320 g/ha
Procedure, shortened: as §1

windgrass = test: Test Example 5: herbicidal effect by foliage application, plastic box (Table 20, symbol L); assay type: in vivo, windgrass (Apera spica-venti); details: foliage application, 320 g/ha, evaluated three weeks after application
Procedure, shortened: as §2

redroot pigweed = test: Test Example 4: herbicidal effect by soil treatment (Table 19, symbol N); assay type: in vivo, redroot pigweed (Amaranthus retroflexus); details: amount of applied herbicide 320 g/ha
Procedure, shortened: as §1

persian speedwell [14] = test: Test Example 4: herbicidal effect by soil treatment (Table 19, symbol R); assay type: in vivo, Persian speedwell (Veronica persica); details: amount of applied herbicide 320 g/ha
Procedure, shortened: as §1

Structure (SMILES) | H: barnyard grass, herbicidal effect rating (barnyard grass [1]) | M: velvetleaf, herbicidal effect rating (velvetleaf [2]) | herbicidal effect on G: green foxtail (criteria 0-5) (green foxtail [3]) | herbicidal effect on R: persian speedwell (criteria 0-5) (persian speedwell [4]) | herbicidal effect rating, B: Japanese bulrush (Japanese bulrush [5]) | herbicidal effect on H: barnyard grass (barnyard grass [6]) | herbicidal effect on J: blackgrass (criteria 0-5) (blackgrass [7]) | herbicidal effect rating, C: oval-leafed pondweed (oval-leafed pondweed [8]) | J: blackgrass, herbicidal effect rating (blackgrass [9]) | herbicidal effect on M: velvetleaf (criteria 0-5) (velvetleaf [10]) | herbicidal effect on F: southern crabgrass (criteria 0-5) (southern crabgrass) | Herbicidal effect on C: oval-leafed pondweed (grade 0-5) (oval-leafed pondweed [11]) | Herbicidal effect on B: Japanese bulrush (grade 0-5) (Japanese bulrush [12]) | G: green foxtail, herbicidal effect rating (green foxtail [13]) | herbicidal effect on L: windgrass (criteria 0-5) (windgrass) | N: redroot pigweed, herbicidal effect rating (redroot pigweed) | R: persian speedwell, herbicidal effect rating (persian speedwell [14]) | further results
Cc1nn(C)c(=O)c(-c2c(-c3cccc(OC(C)C)c3)sc3ccc(F)cc23)c1O [2-215] | 5 (Herbicidal rate of 90% or more (almost completely withered)) | 2 (Herbicidal rate of 20% or more and less than 40%) | 5 (Herbicidal rate of 90% or more (almost completely withered)) | 5 (Herbicidal rate of 90% or more (almost completely withered)) | 0 (Herbicidal rate of 5% or less (almost no effect)) | 5 (Herbicidal rate of 90% or more (almost completely withered)) | 3 (Herbicidal rate of 40% or more and less than 70%) | 0 (Herbicidal rate of 5% or less (almost no effect)) | 1 (Herbicidal rate of 5% or more and less than 20%) | 3 (Herbicidal rate of 40% or more and less than 70%) | 5 (Herbicidal rate of 90% or more (almost completely withered)) | 0 (Herbicidal rate of 5% or less (almost no effect)) | 0 (Herbicidal rate of 5% or less (almost no effect)) | 5 (Herbicidal rate of 90% or more (almost completely withered)) | 3 (Herbicidal rate of 40% or more and less than 70%) | 5 (Herbicidal rate of 90% or more (almost completely withered)) | 4 (Herbicidal rate of 70% or more and less than 90%) | –
Cc1nn(C)c(=O)c(-c2c(-c3ccc(OC4CC4)cc3)sc3ccc(F)cc23)c1O [2-217] | 5 (Herbicidal rate of 90% or more (almost completely withered)) | 1 (Herbicidal rate of 5% or more and less than 20%) | 4 (Herbicidal rate of 70% or more and less than 90%) | 5 (Herbicidal rate of 90% or more (almost completely withered)) | 3 (Herbicidal rate of 40% or more and less than 70%) | 5 (Herbicidal rate of 90% or more (almost completely withered)) | 1 (Herbicidal rate of 5% or more and less than 20%) | 0 (Herbicidal rate of 5% or less (almost no effect)) | 0 (Herbicidal rate of 5% or less (almost no effect)) | 5 (Herbicidal rate of 90% or more (almost completely withered)) | 3 (Herbicidal rate of 40% or more and less than 70%) | 4 (Herbicidal rate of 70% or more and less than 90%) | 5 (Herbicidal rate of 90% or more (almost completely withered)) | 1 (Herbicidal rate of 5% or more and less than 20%) | 5 (Herbicidal rate of 90% or more (almost completely withered)) | 4 (Herbicidal rate of 70% or more and less than 90%) | 4 (Herbicidal rate of 70% or more and less than 90%) | –
CCCC(=O)Oc1c(C)nn(C)c(=O)c1-c1c(-c2ccc(OC3CC3)cc2)sc2ccc(F)cc12 [2-218] | 0 (Herbicidal rate of 5% or less (almost no effect)) | 0 (Herbicidal rate of 5% or less (almost no effect)) | 2 (Herbicidal rate of 20% or more and less than 40%) | 5 (Herbicidal rate of 90% or more (almost completely withered)) | 3 (Herbicidal rate of 40% or more and less than 70%) | 5 (Herbicidal rate of 90% or more (almost completely withered)) | 1 (Herbicidal rate of 5% or more and less than 20%) | 3 (Herbicidal rate of 40% or more and less than 70%) | 0 (Herbicidal rate of 5% or less (almost no effect)) | 5 (Herbicidal rate of 90% or more (almost completely withered)) | 0 (Herbicidal rate of 5% or less (almost no effect)) | 5 (Herbicidal rate of 90% or more (almost completely withered)) | 5 (Herbicidal rate of 90% or more (almost completely withered)) | 0 (Herbicidal rate of 5% or less (almost no effect)) | 5 (Herbicidal rate of 90% or more (almost completely withered)) | 1 (Herbicidal rate of 5% or more and less than 20%) | 4 (Herbicidal rate of 70% or more and less than 90%) | –
CCCC(=O)Oc1c(C)nn(C)c(=O)c1-c1c(-c2cccc(OCC(C)C)c2)sc2ccc(F)cc12 [2-222] | – | – | 5 (Herbicidal rate of 90% or more (almost completely withered)) | 5 (Herbicidal rate of 90% or more (almost completely withered)) | 3 (Herbicidal rate of 40% or more and less than 70%) | 5 (Herbicidal rate of 90% or more (almost completely withered)) | 4 (Herbicidal rate of 70% or more and less than 90%) | 3 (Herbicidal rate of 40% or more and less than 70%) | – | 5 (Herbicidal rate of 90% or more (almost completely withered)) | 5 (Herbicidal rate of 90% or more (almost completely withered)) | 4 (Herbicidal rate of 70% or more and less than 90%) | 4 (Herbicidal rate of 70% or more and less than 90%) | – | 4 (Herbicidal rate of 70% or more and less than 90%) | – | – | herbicidal effect on H: barnyard grass (barnyard grass [1]): 5 (Herbicidal rate of 90% or more (almost completely withered)); herbicidal effect on M: velvetleaf (velvetleaf [2]): 3 (Herbicidal rate of 40% or more and less than 70%); herbicidal effect on J: blackgrass (blackgrass [9]): 4 (Herbicidal rate of 70% or more and less than 90%); herbicidal effect on G: green foxtail (green foxtail [13]): 2 (Herbicidal rate of 20% or more and less than 40%); herbicidal effect on N: redroot pigweed (redroot pigweed): 5 (Herbicidal rate of 90% or more (almost completely withered)); herbicidal effect on R: persian speedwell (persian speedwell [14]): 5 (Herbicidal rate of 90% or more (almost completely withered))
